Measurements reported in PMC7904550, “Application of grouping and read-across for the evaluation of parabens of different chain lengths with a particular focus on endocrine properties” (Archives of Toxicology, 2021).

How the values were obtained:
SD-JCL rats = conditions: feeding study, ref Sado 1973, Liebert 1984; cited from earlier work
rats [1] = conditions: read-across from MP; ref ECHA dissemination portal; cited from earlier work
[2] = Octanol–water partition coefficient (Log Kow); format: physicochemical; conditions: mean; OECD TG 107 and OECD TG 117
From the text: Generally, these parabens have very similar physico-chemical properties.

rats [3] = conditions: rat, in vivo; cited from earlier work
rats [4] = conditions: rat, in vivo; cited from earlier work; remark: listed apart in the source
rats [5] = conditions: rat, in vivo; cited from earlier work; remark: listed apart in the source
rats [6] = conditions: ref EFSA 2004; cited from earlier work
bacteria = conditions: OECD 471; ref ECHA dissemination portal; cited from earlier work
rats [7] = conditions: acute oral, rats, OECD 401; ref ECHA dissemination portal; cited from earlier work
in vivo = conditions: for concentration at 1 h / Tmax / AUC(0-t) / Cmax: Wistar, rat, serum; for concentration at 1 h: oral; for Tmax / AUC(0-t) / Cmax: po; for AUC(0-t) / Cmax / AUC0-1 h/AUC0–t / C1h/Cmax / Clast / tlast: parent compound
Method: These studies were conducted similarly to OECD TG 417 applying 500 and 1000 mg/kg body weight (bw) test item via oral gavage to 10 males and 10 females per dose group. Focus of the toxicokinetic evaluation was on the measurement of the serum concentrations of the parent compounds and their (common) major metabolite p-hydroxybenzoic acid by […] in order to assess the systemic uptake and elimination of the parent compounds and this major metabolite [see also ECHA ([2017a])]. The limit of quantification was determined as 10 ng/mL for all parabens, and as 130 ng/mL for p-hydroxybenzoic acid. […] On account of these major aims, investigations of the faeces and urine were not included in the toxicokinetics screening studies.

[8] = Grouping and read-across of NOAEL (ECHA RAAF Scenario 5; analogue approach)
From the text: The strength of evidence for the respective AEs was scored by the assessment options indicated in the RAAF ranging from Score 5 (acceptable with high confidence) to Score 1 (not acceptable) (ECHA [2017b]).

[9] = read-across by interpolation from methyl paraben and propyl paraben

CCOC(=O)c1ccc(O)cc1 [Ethyl paraben, Ethyl 4-hydroxybenzoate]
NOAEL, 25-week repeated dose toxicity (SD-JCL rats): NOAEL: 1200 (25-week repeated dose toxicity [a]) mg/kg body weight/day
Genetic toxicity in vivo (rats) classification (rats [1]): Not clastogenic (read-across from MP)
Log Kow [2]: 2.3 (mean; OECD TG 107 and OECD TG 117)
Eye irritation/eye corrosion classification (rats [3]): Not irritating (OECD 405; 1983)
Skin sensitisation classification (rats [4]): Not sensitising (equiv. OECD 406; 1981)
Skin irritation/skin corrosion classification (rats [5]): Not irritating (OECD 404; 1983)
NOAEL (rats [6]): 1000 mg/kg bw/day
Mutagenicity in bacteria classification (bacteria): Not mutagenic [c] (OECD 471; 2012)
LD50 (rats [7]): > 3100 (OECD 401; 1982) mg/kg bw
concentration at 1 h (in vivo; female, 500 mg/kg): 116 ng/mL
concentration at 1 h (in vivo; female, 1000 mg/kg): 305 ng/mL
Tmax (in vivo; female, 500 mg/kg): 4.8 min
AUC(0-t) (in vivo; female, 500 mg/kg, AUC0-1 h): 1080 ng·h/mL
AUC(0-t) (in vivo; female, 500 mg/kg, AUC0–t): 1540 ng·h/mL
Cmax (in vivo; female, 500 mg/kg): 5930 ng/mL
Tmax (in vivo; female, 1000 mg/kg): 10.2 min
AUC(0-t) (in vivo; female, 1000 mg/kg, AUC0-1 h): 1660 ng·h/mL
AUC(0-t) (in vivo; female, 1000 mg/kg, AUC0–t): 3320 ng·h/mL
Cmax (in vivo; female, 1000 mg/kg): 5150 ng/mL
Cmax (in vivo; female, 1000 mg/kg, females): 5000 ng/mL
concentration at 1 h (in vivo; male, 500 mg/kg): 71.6 ng/mL
concentration at 1 h (in vivo; male, 1000 mg/kg): 96.6 ng/mL
Tmax (in vivo; male, 500 mg/kg): 4.8 min
AUC(0-t) (in vivo; male, 500 mg/kg, AUC0-1 h): 320 ng·h/mL
AUC(0-t) (in vivo; male, 500 mg/kg, AUC0–t): 632 ng·h/mL
Cmax (in vivo; male, 500 mg/kg): 1540 ng/mL
Tmax (in vivo; male, 1000 mg/kg): 4.8 min
AUC(0-t) (in vivo; male, 1000 mg/kg, AUC0-1 h): 490 ng·h/mL
AUC(0-t) (in vivo; male, 1000 mg/kg, AUC0–t): 789 ng·h/mL
Cmax (in vivo; male, 1000 mg/kg): 2390 ng/mL
Cmax (in vivo; male, 1000 mg/kg, males): 2000 ng/mL
AUC0-1 h/AUC0–t (in vivo; 500 mg/kg, female): 70%
C1h/Cmax (in vivo; 500 mg/kg, female): 2.0%
Clast (in vivo; 500 mg/kg, female): 23.9 ng/mL
tlast (in vivo; 500 mg/kg, female): 8.0 h
AUC0-1 h/AUC0–t (in vivo; 500 mg/kg, male): 51%
C1h/Cmax (in vivo; 500 mg/kg, male): 4.7%
Clast (in vivo; 500 mg/kg, male): 70.6 ng/mL
tlast (in vivo; 500 mg/kg, male): 8.0 h
AUC0-1 h/AUC0–t (in vivo; 1000 mg/kg, female): 50%
C1h/Cmax (in vivo; 1000 mg/kg, female): 5.9%
Clast (in vivo; 1000 mg/kg, female): 168 ng/mL
tlast (in vivo; 1000 mg/kg, female): 8.0 h
AUC0-1 h/AUC0–t (in vivo; 1000 mg/kg, male): 62%
C1h/Cmax (in vivo; 1000 mg/kg, male): 4.0%
Clast (in vivo; 1000 mg/kg, male): 33.3 ng/mL
tlast (in vivo; 1000 mg/kg, male): 8.0 h
NOAEL for repeated-dose toxicity and DART ([8]; interpolated from methyl paraben and propyl paraben): 1000 mg/kg bw/day
NOAEL, EOGRTS: developmental and reproductive toxicity [8, 9]: NOAEL: 1000 (Read-across by interpolation) mg/kg body weight/day
NOAEL, developmental toxicity (OECD TG 414) [8, 9]: NOAEL: 1000 (Read-across by interpolation) mg/kg body weight/day
NOAEL, reproductive toxicity (OECD TG 421/422) [8, 9]: NOAEL: 1000 (Read-across by interpolation) mg/kg body weight/day
